System: Helicobacter pylori
Test: Antibacterial activity against metronidazole-sensitive Helicobacter pylori at 16 ug/disk after 3 to 5 days by filter paper disk diffusion method
Format: functional
Settings: read-out: IZ

Point of comparison: O=[N+]([O-])c1ccc(-c2nnc(N3CC[S+]([O-])CC3)s2)s1, zone of inhibition at 16 µg/disc 39 mm. Against it:
- O=[N+]([O-])c1ccc(-c2nnc(N3CCSCC3)s2)o1 — lower, 35 mm
- O=[N+]([O-])c1ccc(-c2nnc(N3CCSCC3)s2)s1 — lower, 18 mm
- O=[N+]([O-])c1ccc(-c2nnc(N3CCS(=O)(=O)CC3)s2)o1 — higher, 50 mm
- O=[N+]([O-])c1ccc(-c2nnc(N3CC[S+]([O-])CC3)s2)o1 — higher, 41 mm
- Cn1c([N+](=O)[O-])cnc1-c1nnc(N2CCCCC2)s1 — lower, 6 mm
- Cn1c([N+](=O)[O-])cnc1-c1nnc(N2CCS(=O)(=O)CC2)s1 — higher, 40 mm

System: Helicobacter pylori
Test: Antibacterial activity against Helicobacter pylori clinical isolates at 4 ug/disk after 3 to 5 days by filter paper disk diffusion method
Format: functional
Settings: read-out: IZ

Point of comparison: Cn1c([N+](=O)[O-])cnc1-c1nnc(N2CCS(=O)(=O)CC2)s1, zone of inhibition at 4 µg/disc 25.9 mm. Against it:
- O=[N+]([O-])c1ccc(-c2nnc(N3CCSCC3)s2)o1 — higher, 27.7 mm
- O=[N+]([O-])c1ccc(-c2nnc(N3CC[S+]([O-])CC3)s2)s1 — higher, 28.1 mm
- O=[N+]([O-])c1ccc(-c2nnc(N3CCS(=O)(=O)CC3)s2)o1 — higher, 30.7 mm
- O=[N+]([O-])c1ccc(-c2nnc(N3CC[S+]([O-])CC3)s2)o1 — lower, 25.4 mm

System: Helicobacter pylori
Test: Antibacterial activity against metronidazole-sensitive Helicobacter pylori at 8 ug/disk after 3 to 5 days by filter paper disk diffusion method
Format: functional
Settings: read-out: IZ

Point of comparison: O=[N+]([O-])c1ccc(-c2nnc(N3CCS(=O)(=O)CC3)s2)o1, zone of inhibition at 8 µg/disc 43 mm. Against it:
- O=[N+]([O-])c1ccc(-c2nnc(N3CCSCC3)s2)o1 — lower, 32 mm
- O=[N+]([O-])c1ccc(-c2nnc(N3CCSCC3)s2)s1 — lower, 16 mm
- O=[N+]([O-])c1ccc(-c2nnc(N3CC[S+]([O-])CC3)s2)s1 — lower, 34 mm
- O=[N+]([O-])c1ccc(-c2nnc(N3CC[S+]([O-])CC3)s2)o1 — lower, 35 mm
- Cn1c([N+](=O)[O-])cnc1-c1nnc(N2CCCCC2)s1 — lower, 6 mm
- Cn1c([N+](=O)[O-])cnc1-c1nnc(N2CCS(=O)(=O)CC2)s1 — lower, 32 mm
- Cc1ncc([N+](=O)[O-])n1CCO [METRONIDAZOLE] — lower, 18 mm

System: Helicobacter pylori
Test: Antibacterial activity against Helicobacter pylori clinical isolates at 1 ug/disk after 3 to 5 days by filter paper disk diffusion method
Format: functional
Settings: read-out: IZ

Point of comparison: O=[N+]([O-])c1ccc(-c2nnc(N3CCS(=O)(=O)CC3)s2)o1, zone of inhibition at 1 µg/disc 21 mm. Against it:
- O=[N+]([O-])c1ccc(-c2nnc(N3CCSCC3)s2)o1 — lower, 18.3 mm
- O=[N+]([O-])c1ccc(-c2nnc(N3CC[S+]([O-])CC3)s2)s1 — lower, 18.5 mm
- O=[N+]([O-])c1ccc(-c2nnc(N3CC[S+]([O-])CC3)s2)o1 — lower, 13.4 mm
- Cn1c([N+](=O)[O-])cnc1-c1nnc(N2CCS(=O)(=O)CC2)s1 — lower, 14.9 mm
- CC1(C)S[C@@H]2[C@H](NC(=O)[C@H](N)c3ccc(O)cc3)C(=O)N2[C@H]1C(=O)O [AMOXICILLIN] — higher, 24.5 mm

System: Helicobacter pylori
Test: Antibacterial activity against Helicobacter pylori clinical isolates at 8 ug/disk after 3 to 5 days by filter paper disk diffusion method
Format: functional
Settings: read-out: IZ

Point of comparison: O=[N+]([O-])c1ccc(-c2nnc(N3CCS(=O)(=O)CC3)s2)o1, zone of inhibition at 8 µg/disc 36.1 mm. Against it:
- O=[N+]([O-])c1ccc(-c2nnc(N3CCSCC3)s2)o1 — lower, 30.1 mm
- O=[N+]([O-])c1ccc(-c2nnc(N3CC[S+]([O-])CC3)s2)s1 — lower, 34.4 mm
- O=[N+]([O-])c1ccc(-c2nnc(N3CC[S+]([O-])CC3)s2)o1 — lower, 31 mm
- Cn1c([N+](=O)[O-])cnc1-c1nnc(N2CCS(=O)(=O)CC2)s1 — lower, 30.2 mm
- Cc1ncc([N+](=O)[O-])n1CCO [METRONIDAZOLE] — lower, 16.3 mm

System: Helicobacter pylori
Test: Antibacterial activity against metronidazole-sensitive Helicobacter pylori at 32 ug/disk after 3 to 5 days by filter paper disk diffusion method
Format: functional
Settings: read-out: IZ

Point of comparison: Cn1c([N+](=O)[O-])cnc1-c1nnc(N2CCCCC2)s1, zone of inhibition at 32 µg/disc 6 mm. Against it:
- O=[N+]([O-])c1ccc(-c2nnc(N3CCSCC3)s2)o1 — higher, 41 mm
- O=[N+]([O-])c1ccc(-c2nnc(N3CCSCC3)s2)s1 — higher, 22 mm
- O=[N+]([O-])c1ccc(-c2nnc(N3CC[S+]([O-])CC3)s2)s1 — higher, 46 mm
- O=[N+]([O-])c1ccc(-c2nnc(N3CCS(=O)(=O)CC3)s2)o1 — higher, > 50 mm
- O=[N+]([O-])c1ccc(-c2nnc(N3CC[S+]([O-])CC3)s2)o1 — higher, 46 mm
- Cn1c([N+](=O)[O-])cnc1-c1nnc(N2CCS(=O)(=O)CC2)s1 — higher, 45 mm

System: Helicobacter pylori
Test: Antibacterial activity against metronidazole-resistant Helicobacter pylori at 8 ug/disk after 3 to 5 days by filter paper disk diffusion method
Format: functional
Settings: read-out: IZ

Point of comparison: Cc1ncc([N+](=O)[O-])n1CCO [METRONIDAZOLE], zone of inhibition at 8 µg/disc 11 mm. Against it:
- O=[N+]([O-])c1ccc(-c2nnc(N3CCSCC3)s2)o1 — higher, 26 mm
- O=[N+]([O-])c1ccc(-c2nnc(N3CCSCC3)s2)s1 — higher, 16 mm
- O=[N+]([O-])c1ccc(-c2nnc(N3CC[S+]([O-])CC3)s2)s1 — higher, 32 mm
- O=[N+]([O-])c1ccc(-c2nnc(N3CCS(=O)(=O)CC3)s2)o1 — higher, 41 mm
- O=[N+]([O-])c1ccc(-c2nnc(N3CC[S+]([O-])CC3)s2)o1 — higher, 35 mm
- Cn1c([N+](=O)[O-])cnc1-c1nnc(N2CCCCC2)s1 — lower, 6 mm
- Cn1c([N+](=O)[O-])cnc1-c1nnc(N2CCS(=O)(=O)CC2)s1 — higher, 27 mm

System: Helicobacter pylori
Test: Antibacterial activity against Helicobacter pylori clinical isolates at 32 ug/disk after 3 to 5 days by filter paper disk diffusion method
Format: functional
Settings: read-out: IZ

Point of comparison: O=[N+]([O-])c1ccc(-c2nnc(N3CCSCC3)s2)o1, zone of inhibition at 32 µg/disc 36.9 mm. Against it:
- O=[N+]([O-])c1ccc(-c2nnc(N3CC[S+]([O-])CC3)s2)s1 — higher, 45 mm
- O=[N+]([O-])c1ccc(-c2nnc(N3CCS(=O)(=O)CC3)s2)o1 — higher, 44.3 mm
- O=[N+]([O-])c1ccc(-c2nnc(N3CC[S+]([O-])CC3)s2)o1 — higher, 41.9 mm
- Cn1c([N+](=O)[O-])cnc1-c1nnc(N2CCS(=O)(=O)CC2)s1 — higher, 37.3 mm

System: Helicobacter pylori
Test: Antibacterial activity against metronidazole-resistant Helicobacter pylori at 16 ug/disk after 3 to 5 days by filter paper disk diffusion method
Format: functional
Settings: read-out: IZ

Point of comparison: Cn1c([N+](=O)[O-])cnc1-c1nnc(N2CCCCC2)s1, zone of inhibition at 16 µg/disc 6 mm. Against it:
- O=[N+]([O-])c1ccc(-c2nnc(N3CCSCC3)s2)o1 — higher, 37 mm
- O=[N+]([O-])c1ccc(-c2nnc(N3CCSCC3)s2)s1 — higher, 19 mm
- O=[N+]([O-])c1ccc(-c2nnc(N3CC[S+]([O-])CC3)s2)s1 — higher, 35 mm
- O=[N+]([O-])c1ccc(-c2nnc(N3CCS(=O)(=O)CC3)s2)o1 — higher, 43 mm
- O=[N+]([O-])c1ccc(-c2nnc(N3CC[S+]([O-])CC3)s2)o1 — higher, 40 mm
- Cn1c([N+](=O)[O-])cnc1-c1nnc(N2CCS(=O)(=O)CC2)s1 — higher, 36 mm

System: Helicobacter pylori
Test: Antibacterial activity against Helicobacter pylori clinical isolates at 0.5 ug/disk after 3 to 5 days by filter paper disk diffusion method
Format: functional
Settings: read-out: IZ

Point of comparison: O=[N+]([O-])c1ccc(-c2nnc(N3CC[S+]([O-])CC3)s2)s1, zone of inhibition at 0.5 µg/disc 13.7 mm. Against it:
- O=[N+]([O-])c1ccc(-c2nnc(N3CCSCC3)s2)o1 — lower, 10.8 mm
- O=[N+]([O-])c1ccc(-c2nnc(N3CCS(=O)(=O)CC3)s2)o1 — higher, 16.6 mm
- O=[N+]([O-])c1ccc(-c2nnc(N3CC[S+]([O-])CC3)s2)o1 — lower, 7.3 mm
- Cn1c([N+](=O)[O-])cnc1-c1nnc(N2CCS(=O)(=O)CC2)s1 — lower, 10.6 mm

System: Helicobacter pylori
Test: Antibacterial activity against Helicobacter pylori clinical isolates at 16 ug/disk after 3 to 5 days by filter paper disk diffusion method
Format: functional
Settings: read-out: IZ

Point of comparison: O=[N+]([O-])c1ccc(-c2nnc(N3CCSCC3)s2)o1, zone of inhibition at 16 µg/disc 32.9 mm. Against it:
- O=[N+]([O-])c1ccc(-c2nnc(N3CC[S+]([O-])CC3)s2)s1 — higher, 39.9 mm
- O=[N+]([O-])c1ccc(-c2nnc(N3CCS(=O)(=O)CC3)s2)o1 — higher, 40.7 mm
- O=[N+]([O-])c1ccc(-c2nnc(N3CC[S+]([O-])CC3)s2)o1 — higher, 37.1 mm
- Cn1c([N+](=O)[O-])cnc1-c1nnc(N2CCS(=O)(=O)CC2)s1 — higher, 33.9 mm

System: Helicobacter pylori
Test: Antibacterial activity against Helicobacter pylori clinical isolates at 2 ug/disk after 3 to 5 days by filter paper disk diffusion method
Format: functional
Settings: read-out: IZ

Point of comparison: O=[N+]([O-])c1ccc(-c2nnc(N3CCS(=O)(=O)CC3)s2)o1, zone of inhibition at 2 µg/disc 25.5 mm. Against it:
- O=[N+]([O-])c1ccc(-c2nnc(N3CCSCC3)s2)o1 — lower, 23.4 mm
- O=[N+]([O-])c1ccc(-c2nnc(N3CC[S+]([O-])CC3)s2)s1 — lower, 23.6 mm
- O=[N+]([O-])c1ccc(-c2nnc(N3CC[S+]([O-])CC3)s2)o1 — lower, 19.9 mm
- Cn1c([N+](=O)[O-])cnc1-c1nnc(N2CCS(=O)(=O)CC2)s1 — lower, 19.3 mm

System: Helicobacter pylori
Test: Antibacterial activity against metronidazole-resistant Helicobacter pylori at 32 ug/disk after 3 to 5 days by filter paper disk diffusion method
Format: functional
Settings: read-out: IZ

Point of comparison: O=[N+]([O-])c1ccc(-c2nnc(N3CCS(=O)(=O)CC3)s2)o1, zone of inhibition at 32 µg/disc 46 mm. Against it:
- O=[N+]([O-])c1ccc(-c2nnc(N3CCSCC3)s2)o1 — lower, 42 mm
- O=[N+]([O-])c1ccc(-c2nnc(N3CCSCC3)s2)s1 — lower, 21 mm
- O=[N+]([O-])c1ccc(-c2nnc(N3CC[S+]([O-])CC3)s2)s1 — lower, 41 mm
- O=[N+]([O-])c1ccc(-c2nnc(N3CC[S+]([O-])CC3)s2)o1 — lower, 43 mm
- Cn1c([N+](=O)[O-])cnc1-c1nnc(N2CCCCC2)s1 — lower, 6 mm
- Cn1c([N+](=O)[O-])cnc1-c1nnc(N2CCS(=O)(=O)CC2)s1 — lower, 40 mm

Source: ChEMBL document CHEMBL1140970, “Synthesis and in vitro anti-Helicobacter pylori activity of N-[5-(5-nitro-2-heteroaryl)-1,3,4-thiadiazol-2-yl]thiomorpholines and related compounds” (2008)
